Results published in ChEMBL document CHEMBL1781986, “Structure-activity relationships of pyrrole based S-nitrosoglutathione reductase inhibitors: pyrrole regioisomers and propionic acid replacement” (Bioorg Med Chem Lett, 2011).

How the values were obtained:
[1] = Oral bioavailability in BALB/c mouse at 10 mg/kg administered as single dose; assay type: ADME, organism-based; settings: in vivo
[2] = Inhibition of GSNOR expressed in Escherichia coli using GSNO by plate method
[3] = Clearance in BALB/c mouse plasma at 2 mg/kg, iv or at 10 mg/kg, po administered as single dose; assay type: ADME, organism-based
[4] = Inhibition of GSNOR expressed in Escherichia coli using GSNO by cuvette method
A549 = experiment: Cytotoxicity against human A549 cells; assay type: functional, cell-based

| Structure (SMILES) | IC50 [4] [µM] | other results |
| --- | --- | --- |
| COc1ccc(-c2ccc(CCC(=O)O)n2-c2ccc(C(N)=O)cc2C)cc1 | – | bioavailability [1]: 16.2%; IC50 [2]: 0.18 µM; clearance [3]: 35.4 mL/min/kg |
| COc1ccc(-c2ccn(-c3ccc(C(=O)O)nc3)c2-c2ccc(C(N)=O)cc2C)cc1 | 8.53 | – |
| COc1ccc(-c2ccn(C(C)CC(=O)O)c2-c2ccc(C(N)=O)cc2C)cc1 (stereo not drawn) | 14.1 | – |
| COc1ccc(-c2ccn(CC3(C(=O)O)CC3)c2-c2ccc(C(N)=O)cc2C)cc1 | 8.09 | – |
| COc1ccc(-c2ccn(C(CC(=O)O)C3CC3)c2-c2ccc(C(N)=O)cc2C)cc1 (stereo not drawn) | > 100 | – |
| COc1ccc(-c2ccn(-c3ccc(C(=O)O)cn3)c2-c2ccc(C(N)=O)cc2C)cc1 | 29.6 | – |
| COc1ccc(-c2ccn(CC(O)C(=O)O)c2-c2ccc(C(N)=O)cc2C)cc1 (stereo not drawn) | 23.5 | – |
| COc1ccc(-c2ccn(C3CCC(C(=O)O)CC3)c2-c2ccc(C(N)=O)cc2C)cc1 (stereo not drawn) | > 100 | – |
| COc1ccc(-c2ccn(-c3ccc(O)c(F)c3)c2-c2ccc(C(N)=O)cc2C)cc1 | 0.46 | – |
| CCCC(CC(=O)O)n1ccc(-c2ccc(OC)cc2)c1-c1ccc(C(N)=O)cc1C (stereo not drawn) | 63.7 | – |
| COc1ccc(-c2ccn(C(CC(=O)O)c3ccccc3)c2-c2ccc(C(N)=O)cc2C)cc1 (stereo not drawn) | 8.84 | – |
| COc1ccc(-c2ccn(-c3ccc(C(=O)O)cc3)c2-c2ccc(C(N)=O)cc2C)cc1 | 0.85 | – |
| COc1ccc(-c2ccn(-c3cc(F)c(O)c(F)c3)c2-c2ccc(C(N)=O)cc2C)cc1 | 0.45 | – |
| COc1ccc(-n2ccc(CCC(=O)O)c2-c2ccc(C(N)=O)cc2C)cc1 | – | IC50 [2]: 0.16 µM |
| COc1ccc(-c2ccn(CC(C)C(=O)O)c2-c2ccc(C(N)=O)cc2C)cc1 (stereo not drawn) | 1.97 | – |
| COc1ccc(-c2ccn(-c3ccc(S(N)(=O)=O)cc3)c2-c2ccc(C(N)=O)cc2C)cc1 | 28.4 | – |
| COc1ccc(-c2ccn(-c3ccc(C(=O)O)c(F)c3)c2-c2ccc(C(N)=O)cc2C)cc1 | 1.57 | – |
| COc1ccc(-c2ccn(-c3ccc(O)nc3)c2-c2ccc(C(N)=O)cc2C)cc1 | 21.6 | – |
| COc1ccc(-c2ccn(CCC(=O)O)c2-c2ccc(C(N)=O)cc2C)cc1 | 0.52 | IC50 (A549): > 250 µM; bioavailability [1]: 12.2%; IC50 [2]: 0.66 µM; clearance [3]: 52.3 mL/min/kg |
| COc1ccc(-c2ccn(CC(N)C(=O)O)c2-c2ccc(C(N)=O)cc2C)cc1 (stereo not drawn) | > 100 | – |
| COc1cc(Cl)ccc1-c1ccc(CCC(=O)O)n1-c1ccc(C(N)=O)cc1C | – | IC50 [2]: 0.054 µM |
| COc1ccc(-c2ccn(CC(F)(F)C(=O)O)c2-c2ccc(C(N)=O)cc2C)cc1 | 1.51 | – |
| COc1ccc(-c2ccn(C(CC(=O)O)C(C)C)c2-c2ccc(C(N)=O)cc2C)cc1 (stereo not drawn) | 97.2 | – |
| COc1ccc(-c2ccn(-c3ccc(C(=O)O)c(Cl)c3)c2-c2ccc(C(N)=O)cc2C)cc1 | 3.47 | – |
| COc1cc(Cl)ccc1-n1ccc(CCC(=O)O)c1-c1ccc(C(N)=O)cc1C | – | IC50 [2]: 0.049 µM |
| COc1ccc(-c2ccn(-c3ccc(O)c(C(=O)O)c3)c2-c2ccc(C(N)=O)cc2C)cc1 | 0.41 | – |
| COc1ccc(-c2ccn(-c3ccc(O)cn3)c2-c2ccc(C(N)=O)cc2C)cc1 | 3.02 | – |
